Assay results reported in a melting point compilation (Tetko et al.; mined from patent text by program, amines drawn as free bases though some values may be those of a salt).

Row | SMILES | melting point
1 | CS(=O)(=O)N1CCN(c2ccc(OC[C@H]3CCn4cc([N+](=O)[O-])nc4O3)cc2)CC1 | 149 to 151 °C
2 | Cc1nc2c(c(N3CCN(CCO)CC3)n1)OC(C)C(=O)N2 (stereo not given) | 160 to 161 °C
3 | COc1ccc(N2N=C3c4cc(C)sc4CCCC3CC2=O)cc1 (stereo not given) | 136 to 138 °C
4 | COC(=O)c1nc(-c2ccc(Cl)cc2)c(Cl)c(N)c1OC | 139 to 141 °C
5 | CCOC(=O)c1cn(-c2ccc(C(F)(F)F)cn2)nc1C(C)CC (stereo not given) | 63 to 64 °C
6 | COc1cc(-c2cnc3[nH]cc(C(=O)N4CCCC4)c3n2)cc(OC)c1OC | 210 to 212 °C
7 | CC(=O)N1CC(C)(C)c2c1cc(C)c(O)c2C | 173 to 174 °C
8 | COC(=O)c1ccc(SC(Cn2ccnc2)c2ccccc2C(F)(F)F)cc1 (stereo not given) | 121 to 126 °C
9 | N#CCc1ccc(NC(=O)CNc2ccccc2F)cc1 | 111 to 113 °C
10 | COc1c(CO)cccc1Oc1ccccc1C | 63 to 65 °C
11 | CCOC(=O)NCC(=O)c1ccc(OCC(=O)OC)cc1 | 128 to 129 °C
12 | COc1c(C)cc(C)cc1CCC(=O)O | 74 to 75 °C
13 | COC(=O)CN1CC(OC)=CC1=O | 104 to 106 °C
14 | C=C1C=Cc2cc(C(=O)O)ccc2OC1 | 188 °C
15 | O=C1c2ccccc2C(=O)N1COc1ccc([N+](=O)[O-])cc1 | 145 to 148 °C
16 | CNc1nc(-c2ccc(Cl)c(Cl)c2)ncc1N(C)C(=O)N1CCOCC1 | 227 °C
17 | CN1CCN(C2CC3C4CCC5CC6OC6CC5(C)C4CCC3(C)C2O)CC1 (stereo not given) | 149 to 153 °C

Row | SMILES | melting point
18 | CC(C)c1cccc(C(C)C)c1NC(=O)CN1CCCN(CCCSc2nc3cccc(C(F)(F)F)c3o2)CC1 | 77 to 79 °C
19 | O=C1N[C@H](Cc2cccc(OCC(F)(F)C(F)F)c2)[C@H](c2ccc(F)cc2)O1 (racemic) | 113 to 114 °C
20 | C[C@@H]1NCC[C@@H]1C(C)(C)O | 120 to 122 °C
21 | CC(C)(Oc1ccc(NC(=O)Nc2ccc(Cl)c(Cl)c2)cc1)C(=O)O | 183 to 184 °C
22 | CCOC(=O)C(C)=Cc1ccc(Sc2ccncc2)c(C(F)(F)F)c1 | > 200 °C
23 | Cn1c(C(=O)O)cc(=O)c2oc3ccc(Cl)cc3c(=O)c21 | 241 to 242 °C
24 | CON(C)C(=O)c1cc(S(N)(=O)=O)sc1Cl | 223 to 225 °C
25 | COc1ccc(CC2SC(=O)NC2=O)c2ccc(=O)n(C)c12 (stereo not given) | 254 to 255 °C
26 | COC(=O)c1oc2c(sc3ccccc32)c1OC | 145 to 146 °C
27 | COC(=O)Nc1ccccc1C(=O)Nc1nnn[nH]1 | 236 to 237 °C
28 | CN(C)CCCCC1CCCN(CCNC(=O)N2c3ccccc3C(=O)Nc3cccnc32)C1 (stereo not given) | 119 to 120 °C
29 | COc1cc(Cl)ncn1 | 32 to 34 °C
30 | CCOC(=O)c1csc2c1N(O)CCC2 | 252 to 253 °C
31 | COc1ccc(C2=NN(C3CCN(C(=O)CN4C(=O)COCC4=O)CC3)C(=O)C(C)(C)C2)cc1OC | 210 to 211 °C
32 | CCc1cc(CC)c(-c2c(O)c(C)nn(C)c2=O)c(CC)c1Br | 225 to 226 °C
33 | CCOC(=O)CCc1cn(C)nc1O | 89 to 91 °C

Further lines, results first:

Row | melting point | SMILES
34 | 159 to 161 °C | CC(C)(C)OC(=O)[C@@](C)(C#N)[C@H](c1ccccc1C(F)(F)F)c1cccc2ccccc12 (racemic)
35 | 243 to 244 °C | CS(=O)(=O)c1ccc(-c2cc(C(F)(F)F)nn2-c2ccc(O)cc2)cc1
36 | 56 to 60 °C | CCCCC1CCc2ccc(OCc3ccccn3)cc2C1=O (stereo not given)
37 | 99 °C | CCCCc1ccc(OC)c(-c2csc(NC(=O)c3ccc(C(=O)N4CCC(N5CCC(OC(C)=O)C5)CC4)cc3)n2)c1 (stereo not given)
38 | 97 to 100 °C | CCc1c(-c2ccc(OC)cc2)c2c(CO)cc3cccc1n32
39 | 101 to 103 °C | CS(=O)(=O)c1ccc(-c2cnn(-c3ccc(F)c(Cl)c3)c(=O)c2Cc2cccc(F)c2)cc1
40 | 125 to 126 °C | Cc1nn(-c2ccc(C(F)(F)F)cn2)cc1CCCOc1cc(CCC(=O)O)n(-c2ccccc2)n1
41 | 149 to 151 °C | COCCc1nc2c(N)nc3ccccc3c2n1CCCNS(=O)(=O)c1ccccc1
42 | 179 to 206 °C | CCCCCC(=O)Oc1c(-c2ccc(-c3ccccc3)cc2)nc2ccc(F)cc2c1C(=O)O
43 | 194 to 195 °C | COc1ccc(S(=O)(=O)Nc2ccccc2NC(=O)c2ccncc2C)cc1
44 | 118 °C | O=C(NC(=O)C(c1ccccc1)c1ccccc1)OCCCCc1ccccc1
45 | 101 to 103 °C | O=C(O)COCCCCN(c1cnc(-c2ccccc2)c(-c2ccccc2)n1)C1CCCC1
46 | 177 to 178 °C | NS(=O)(=O)c1ccc(C2=C(c3ccc(Cl)cc3)CCC2)cc1
47 | 110 °C | COC(=O)CCCc1cc2nc(Cl)ccc2n1S(=O)(=O)c1ccc(N2CCOCC2)cc1
48 | 130 to 134 °C | CC1(C)CC(=NO)c2cc(-c3ccccc3)ccc2O1
49 | 98 to 99 °C | Cc1oc(-c2ccccc2)nc1COc1ccc(Cn2cc(CC(=O)O)c(-c3cccs3)n2)cc1
50 | 95 °C | CCCCC(C(=O)OC)c1cccc(C(=O)c2cc3cc(C(=O)OC)sc3s2)c1 (stereo not given)
